Test results published in patent US20120214743A1, “ITCH SUPPRESSANT” (University of Occupational and Environmental Health, Japan, priority 2009, published 2012).
Ends that are not written are not given here. * marks the point of attachment. SO3H = O=S(=O)(O)*

How the values were obtained:
ICR mice [1] = assay: Contact hypersensitivity (CHS) mouse model to DNFB, ear swelling; format: in vivo; conditions: 0.5 nmol/ear painted immediately before DNFB challenge, measured 24 hours after challenge; FIG. 5C
Experimental: For induction of CHS to 2,4-dinitrofluorobenzene (DNFB; Nakalai Tesque, Kyoto, Japan), ICR mice were sensitized on two consecutive days, days 0 and 1, on the clipped abdomen with 25 μL of 0.5% of DNFB diluted in acetone/olive oil (3:1). Five days later, animals were challenged on both sides of each ear by painting a nonirritant concentration of 0.2% DNFB. Before challenge, CCK8S (0.5 nmol/ear) diluted in acetone/olive oil (3:1) or only acetone/olive oil (control) was painted on each ear. The ear thickness of mice was measured using dial thickness gauge before and 24 hours after challenge. Ear swelling was calculated from the difference in ear thickness between before and after challenge.
In CHS model, mice were sensitized with DNFB (2,4-dinitrofluorobenzene), a haptene, and the contact hypersensitivity raised by DNFB at day 5 lead to ear swelling.

FSMCs = assay: Confocal imaging of intracellular Ca in FSMCs; format: cell-based, mouse
Experimental: Confocal imaging of cells loaded with fluorescent dyes was undertaken using a Zeiss LSM5 pascal (Carl Zeiss, Jena, Germany). Fluo-4-AM (Invitrogen) (1 μM) was loaded at 37° C. for 20 min and washed twice and sit at least for 40 min. Mast cells, were stained for CD117 (c-kit) with Alexa Fluor 700-conjugated anti-mouse CD117 antibody. The LSM5 multi-track configuration was used for simultaneous measurement of intracellular Ca concentration (Ca) (excitation, 488 nm; emission, long-pass 505 nm filter) and the expression of CD117 (excitation, 633 nm; emission, long-pass 650 nm filter). Images were recorded at room temperature with 512×512 pixels. The application of stimulation, such SP and CCK, were applied directly in the bath as a small drop ([…]). Image data were analyzed off-line using the Zeiss LSM510 analyzing software (LSM Image Examiner).
Thus, it is likely that CCK8S affects signaling in mast cells.

NHEKs = assay: IL-8 production in NHEK (cytometric bead array); format: cell-based, human; conditions: CCK8S 10^−9, 10^−8 or 10^−7 M, Ca 0.15 mM or 0.6 mM, FIG. 5A
Experimental: IL^-8 concentration in the culture supernatants was quantified with Cytometric Bead Array (CBA) Flex Set System purchased from BD using FACSCanto (BD).
NHEKs were stimulated with various concentrations of CCK8S (CCK8S concentration of 10^−9, 10^−8, or 10^−7 M, Ca concentration of 0.15 mM or 0.6 mM).

[2] = test system: FSMCs (mouse fetal skin derived mast cells); assay: β-Hexosaminidase assay, compound 48/80-induced degranulation of FSMCs; format: cell-based; conditions: CCK8S at 10^−8 or 10^−7 M, 15 min at 37° C., FIG. 5B
Experimental: FSMCs were washed with Tyrode's buffer (Sigma), and resuspended at 2×10^4 cells per well into a 96 well plate. FSMCs were treated with compound 48/80 with or without CCK8S for 15 min at 37° C. The plate was centrifuged for 5 min and supernatant was placed into another 96 well and cell pellet were resuspended with 0.5% Triton X-100 (Sigma) in Tyrode's buffer. Supernatant and cell lysate (50 μl) was incubated with 100 μl 4 mM p-nitrophenyl-N-acetyl-β-D-galactosaminide (Sigma), dissolved in citrate buffer, pH4.5, at 37 ° C. for 90 min. The reaction is stopped with 200 μl 0.2M Glycine (MP Biomedicals, Solon, Ohio), pH10.7. The plate was read at 405 nm using a reference filter 595 nm by Microplate Reader (Bio-Rad, Hercules, Calif.). β-hexosaminidase release was determined as the ratio between activity in the supernatant and cell lysate multiplied by 100.
The addition of compound 48/80 induces degranulation in FSMCs.

ICR mice [3] = assay: SP-induced scratch behavior in ICR mice; format: in vivo, mouse
Experimental: Since it is considered that external administration of CCK affects keratinocytes, at first, CCK2R agonist was administered transdermally (applying the solution prepared using acetone-olive (3:1)) to itch-related behavior model (ICR mice administered intradermally with SP (100 nmol)).
The hair was clipped over the rostral part of the murine back one or two days prior to experiment. Before behavioral recording, each mouse (4 animals per observation) was put into an acrylic cage (18×23×11 cm) for at least 1 hr for acclamation. An intradermal injection of SP (100 nmol in normal saline per site) induces scratching of the skin around the injected site by the hind paws in mice. CCKs were topically applied in the two ways, percutaenous application and intradermal injection. For percutaneous application, the shaved back skin was stripped with Scotch tape (3M) 6 times the day before the experiment. The mice were painted on the clipped back with 20 μL CCK (0.5 nmol/site) in acetone/olive (3:1) 3-4 minutes before SP injection (100 nmol/site). […] Immediately after treatment, the animals were put back into the same cage and their behavior was videotaped using a digital video camera for 40 minutes. The frequency of scratch toward the injected site by hind paws was counted for the first 20 minutes with the video.

Substance: Asp-Tyr(SO3H)-Met-Gly-Trp-Met-Asp-Phe-NH2 (DY(SO3H)MGWMDF-NH2) [CCK8S, natural type cholecystokinin, tyrosine at seventh position from C-terminal sulfated]
- ear swelling (ICR mice [1]): suppressed
- percentage of responding FSMCs (FSMCs; Ca response after CCK8S, FIG. 6 bottom): 45%
- change of intracellular Ca concentration (FSMCs; FSMCs, Fluo-4-AM, FIG. 6 top): transient increase
- time to transient increase in Ca after the administration (FSMCs; FSMCs, FIG. 6 top): ≤ 1 min
- production of IL-8 (NHEKs): decreased in accordance with the concentration
- degranulation (β-hexosaminidase release) induced by compound 48/80 [2]: suppression of degranulation was observed
- scratch behavior (frequency of scratch, first 20 minutes) (ICR mice [3]; subcutaneous administration, 0.5 nmol/site in saline simultaneously with SP 100 nmol, FIG. 3B): depressed
- scratch behavior (frequency of scratch, first 20 minutes) (ICR mice [3]; transdermal, 0.5 nmol/site in acetone/olive (3:1), tape-stripped skin, 3-4 minutes before SP 100 nmol/site intradermal, FIG. 3): significant reduction
